Tested on: patients with RET fusion-positive NSCLC
Experiment: Phase 2 trial: adverse events (CTCAE)
Type: in vivo, human
Description: The phase 2 trial was still ongoing. It was a single-arm, multicenter, open-label, nonrandomized study to assess the efficacy and safety of HA121-28 in RET-fusion-positive NSCLC.
Patients aged 18–75 years (inclusive) who had unresectable locally advanced or metastatic NSCLC through histologically or cytologically examination were enrolled. Patients were also required to have documented RET fusions centrally examined by next-generation sequencing in certified laboratories but without other oncogenic alterations. Had progression on at least one previous line of standard treatment but have no previous use of other anti-RET inhibitors. The complete lists of inclusion and exclusion criteria of phase 1 and phase 2 are provided in both protocols (in Supplement).
In phase 1 trial, during the dose-escalation part, patients first administered HA121-28 in a single ascending dose under the fasted state, then followed up for seven days. Then, patients received ascending doses of HA121-28 (q.d.) on a 21-day on and 7-day off treatment scheme for a 28-day cycle. For patients deemed beneficial from the treatment by investigators, treatment could remain until disease progression, or they discontinued from the study. In the dose-expansion part of phase 1, as well as phase 2, patients received HA121-28 (q.d.) at the selected doses on a 21-day on and 7-day off treatment scheme until disease progression, or they discontinued from the study.
Treatment-emergent adverse events (TEAEs) were documented during the entire study period. The predefined adverse event of special interest (AESI) was ≥ grade 3 prolonged QT interval. Tumor imaging was performed using contrast-enhanced computed tomography or magnetic resonance imaging at screening, Day 28 of the first cycle, then approximately every eight weeks till the end of the study for phase 1; in phase 2, imaging was scheduled at screening, and every eight weeks during the first 40 weeks, followed by every 12 weeks for the rest of the study period. RECIST 1.1 was used by the independent review committee or investigators for assessment of tumor response. After the original assessment, a repeated assessment was required around four weeks later to confirm a complete or partial response.
The primary endpoint of phase 2 was the independent review committee evaluated ORR using RECIST 1.1. The secondary endpoints included investigators assessed ORR; DCR, PFS, and DOR by the independent review committee and investigators; overall survival and TEAEs. Each TEAE was graded according to CTCAE version 5.0 and coded by MedDRA (version 24.0). The phase 2 trial is ongoing; not all endpoints are reported in this paper.

COc1cc2c(Nc3ccc(Br)cc3F)ncnc2cc1OCCCCN(C)C.Cl.Cl [HA121-28, N-(4-bromo-2-fluorophenyl)-7-(4-(dimethylamino)butoxy)-6-methoxy quinazolin-4-amine dihydrochloride]
TEAE, All: ALT increased (Phase 2 (N=48), 450 mg): 20 (41.7) count (percentage)
TEAE, All: AST increased (Phase 2 (N=48), 450 mg): 21 (43.8) count (percentage)
TEAE, All: Anemia (Phase 2 (N=48), 450 mg): 5 (10.4) count (percentage)
TEAE, All: Any (Phase 2 (N=48), 450 mg): 48 (100) count (percentage)
TEAE, All: Asthenia (Phase 2 (N=48), 450 mg): 7 (14.6) count (percentage)
TEAE, All: Blood ALP increased (Phase 2 (N=48), 450 mg): 5 (10.4) count (percentage)
TEAE, All: Blood creatinine increased (Phase 2 (N=48), 450 mg): 9 (18.8) count (percentage)
TEAE, All: COVID-19 (Phase 2 (N=48), 450 mg): 7 (14.6) count (percentage)
TEAE, All: Cough (Phase 2 (N=48), 450 mg): 6 (12.5) count (percentage)
TEAE, All: Decreased appetite (Phase 2 (N=48), 450 mg): 5 (10.4) count (percentage)
TEAE, All: Diarrhea (Phase 2 (N=48), 450 mg): 35 (72.9) count (percentage)
TEAE, All: Dizziness (Phase 2 (N=48), 450 mg): 3 (6.3) count (percentage)
TEAE, All: Electrocardiogram T wave abnormal (Phase 2 (N=48), 450 mg): 5 (10.4) count (percentage)
TEAE, All: Fecal occult blood positive (Phase 2 (N=48), 450 mg): 0 count (percentage)
TEAE, All: GGT increased (Phase 2 (N=48), 450 mg): 6 (12.5) count (percentage)
TEAE, All: Hypertension (Phase 2 (N=48), 450 mg): 11 (22.9) count (percentage)
TEAE, All: Hypertriglyceridemia (Phase 2 (N=48), 450 mg): 7 (14.6) count (percentage)
TEAE, All: Hypoalbuminemia (Phase 2 (N=48), 450 mg): 4 (8.3) count (percentage)
TEAE, All: Hypokalemia (Phase 2 (N=48), 450 mg): 11 (22.9) count (percentage)
TEAE, All: Hyponatremia (Phase 2 (N=48), 450 mg): 5 (10.4) count (percentage)
TEAE, All: Nausea (Phase 2 (N=48), 450 mg): 3 (6.3) count (percentage)
TEAE, All: Neutrophil counts decreased (Phase 2 (N=48), 450 mg): 7 (14.6) count (percentage)
TEAE, All: Platelet counts decreased (Phase 2 (N=48), 450 mg): 6 (12.5) count (percentage)
TEAE, All: Prolonged QT interval (Phase 2 (N=48), 450 mg): 21 (43.8) count (percentage)
TEAE, All: Proteinuria (Phase 2 (N=48), 450 mg): 16 (33.3) count (percentage)
TEAE, All: Rash (Phase 2 (N=48), 450 mg): 30 (62.5) count (percentage)
TEAE, All: Sinus tachycardia (Phase 2 (N=48), 450 mg): 5 (10.4) count (percentage)
TEAE, All: Urinary tract infection (Phase 2 (N=48), 450 mg): 5 (10.4) count (percentage)
TEAE, All: Vomiting (Phase 2 (N=48), 450 mg): 6 (12.5) count (percentage)
TEAE, All: Weight loss (Phase 2 (N=48), 450 mg): 5 (10.4) count (percentage)
TEAE, All: White blood cell counts decreased (Phase 2 (N=48), 450 mg): 8 (16.7) count (percentage)
TEAE, ≥ Grade 3: ALT increased (Phase 2 (N=48), 450 mg): 3 (6.3) count (percentage)
TEAE, ≥ Grade 3: AST increased (Phase 2 (N=48), 450 mg): 2 (4.2) count (percentage)
TEAE, ≥ Grade 3: Anemia (Phase 2 (N=48), 450 mg): 0 count (percentage)
TEAE, ≥ Grade 3: Any (Phase 2 (N=48), 450 mg): 35 (72.9) count (percentage)
TEAE, ≥ Grade 3: Asthenia (Phase 2 (N=48), 450 mg): 0 count (percentage)
TEAE, ≥ Grade 3: Blood ALP increased (Phase 2 (N=48), 450 mg): 0 count (percentage)
TEAE, ≥ Grade 3: Blood creatinine increased (Phase 2 (N=48), 450 mg): 0 count (percentage)
TEAE, ≥ Grade 3: COVID-19 (Phase 2 (N=48), 450 mg): 1 (2.1) count (percentage)
TEAE, ≥ Grade 3: Cough (Phase 2 (N=48), 450 mg): 0 count (percentage)
TEAE, ≥ Grade 3: Decreased appetite (Phase 2 (N=48), 450 mg): 1 (2.1) count (percentage)
TEAE, ≥ Grade 3: Diarrhea (Phase 2 (N=48), 450 mg): 6 (12.5) count (percentage)
TEAE, ≥ Grade 3: Dizziness (Phase 2 (N=48), 450 mg): 0 count (percentage)
TEAE, ≥ Grade 3: Electrocardiogram T wave abnormal (Phase 2 (N=48), 450 mg): 0 count (percentage)
TEAE, ≥ Grade 3: Fecal occult blood positive (Phase 2 (N=48), 450 mg): 0 count (percentage)
TEAE, ≥ Grade 3: GGT increased (Phase 2 (N=48), 450 mg): 0 count (percentage)
TEAE, ≥ Grade 3: Hypertension (Phase 2 (N=48), 450 mg): 9 (18.8) count (percentage)
TEAE, ≥ Grade 3: Hypertriglyceridemia (Phase 2 (N=48), 450 mg): 0 count (percentage)
TEAE, ≥ Grade 3: Hypoalbuminemia (Phase 2 (N=48), 450 mg): 0 count (percentage)
TEAE, ≥ Grade 3: Hypokalemia (Phase 2 (N=48), 450 mg): 3 (6.3) count (percentage)
TEAE, ≥ Grade 3: Hyponatremia (Phase 2 (N=48), 450 mg): 0 count (percentage)
TEAE, ≥ Grade 3: Nausea (Phase 2 (N=48), 450 mg): 0 count (percentage)
TEAE, ≥ Grade 3: Neutrophil counts decreased (Phase 2 (N=48), 450 mg): 2 (4.2) count (percentage)
TEAE, ≥ Grade 3: Platelet counts decreased (Phase 2 (N=48), 450 mg): 0 count (percentage)
TEAE, ≥ Grade 3: Prolonged QT interval (Phase 2 (N=48), 450 mg): 15 (31.3) count (percentage)
TEAE, ≥ Grade 3: Proteinuria (Phase 2 (N=48), 450 mg): 0 count (percentage)
TEAE, ≥ Grade 3: Rash (Phase 2 (N=48), 450 mg): 1 (2.1) count (percentage)
TEAE, ≥ Grade 3: Sinus tachycardia (Phase 2 (N=48), 450 mg): 0 count (percentage)
TEAE, ≥ Grade 3: Urinary tract infection (Phase 2 (N=48), 450 mg): 1 (2.1) count (percentage)
TEAE, ≥ Grade 3: Vomiting (Phase 2 (N=48), 450 mg): 0 count (percentage)
TEAE, ≥ Grade 3: Weight loss (Phase 2 (N=48), 450 mg): 0 count (percentage)
TEAE, ≥ Grade 3: White blood cell counts decreased (Phase 2 (N=48), 450 mg): 1 (2.1) count (percentage)
Serious TEAE: ALT increased (Phase 2, 450 mg (N=48)): 1 (2.1) No. (%)
Serious TEAE: AST increased (Phase 2, 450 mg (N=48)): 1 (2.1) No. (%)
Serious TEAE: Abdominal Pain (Phase 2, 450 mg (N=48)): 1 (2.1) No. (%)
Serious TEAE: Abdominal distension (Phase 2, 450 mg (N=48)): 1 (2.1) No. (%)
Serious TEAE: Acute cholecystitis (Phase 2, 450 mg (N=48)): 0 No. (%)
Serious TEAE: Acute pancreatitis (Phase 2, 450 mg (N=48)): 0 No. (%)
Serious TEAE: Anal abscess (Phase 2, 450 mg (N=48)): 0 No. (%)
Serious TEAE: Any (Phase 2, 450 mg (N=48)): 19 (39.6) No. (%)
Serious TEAE: Aortic intramural hematoma (Phase 2, 450 mg (N=48)): 0 No. (%)
Serious TEAE: Arrhythmia (Phase 2, 450 mg (N=48)): 0 No. (%)
Serious TEAE: Blood bilirubin increased (Phase 2, 450 mg (N=48)): 0 No. (%)
Serious TEAE: Blood creatinine increased (Phase 2, 450 mg (N=48)): 0 No. (%)
Serious TEAE: COVID-19 (Phase 2, 450 mg (N=48)): 1 (2.1) No. (%)
Serious TEAE: Cardiac tamponade (Phase 2, 450 mg (N=48)): 0 No. (%)
Serious TEAE: Coronary artery atherosclerosis (Phase 2, 450 mg (N=48)): 1 (2.1) No. (%)
Serious TEAE: Death (Phase 2, 450 mg (N=48)): 1 (2.1) No. (%)
Serious TEAE: Diarrhea (Phase 2, 450 mg (N=48)): 1 (2.1) No. (%)
Serious TEAE: Drug eruption (Phase 2, 450 mg (N=48)): 0 No. (%)
Serious TEAE: Dyspnea (Phase 2, 450 mg (N=48)): 1 (2.1) No. (%)
Serious TEAE: Embolism (Phase 2, 450 mg (N=48)): 1 (2.1) No. (%)
Serious TEAE: Erythema multiforme (Phase 2, 450 mg (N=48)): 1 (2.1) No. (%)
Serious TEAE: Headache (Phase 2, 450 mg (N=48)): 1 (2.1) No. (%)
Serious TEAE: Hemoptysis (Phase 2, 450 mg (N=48)): 0 No. (%)
Serious TEAE: Hydronephrosis (Phase 2, 450 mg (N=48)): 1 (2.1) No. (%)
Serious TEAE: Hypertension (Phase 2, 450 mg (N=48)): 2 (4.2) No. (%)
Serious TEAE: Hypoalbuminemia (Phase 2, 450 mg (N=48)): 0 No. (%)
Serious TEAE: Intestinal obstruction (Phase 2, 450 mg (N=48)): 0 No. (%)
Serious TEAE: Intra-abdominal fluid collection (Phase 2, 450 mg (N=48)): 1 (2.1) No. (%)
Serious TEAE: Intracranial tumor hemorrhage (Phase 2, 450 mg (N=48)): 1 (2.1) No. (%)
Serious TEAE: Liver injury (Phase 2, 450 mg (N=48)): 0 No. (%)
Serious TEAE: Lung adenocarcinoma (Phase 2, 450 mg (N=48)): 1 (2.1) No. (%)
Serious TEAE: Malignant neoplasm progression (Phase 2, 450 mg (N=48)): 1 (2.1) No. (%)
Serious TEAE: Multiple organ dysfunction syndrome (Phase 2, 450 mg (N=48)): 0 No. (%)
Serious TEAE: Nausea (Phase 2, 450 mg (N=48)): 0 No. (%)
Serious TEAE: Nephrolithiasis (Phase 2, 450 mg (N=48)): 1 (2.1) No. (%)
Serious TEAE: Platelet counts decreased (Phase 2, 450 mg (N=48)): 0 No. (%)
Serious TEAE: Pleural effusion (Phase 2, 450 mg (N=48)): 0 No. (%)

Source: article PMC11868595, “Safety, pharmacokinetics and efficacy of HA121-28 in patients with advanced solid tumors and RET fusion-positive non-small-cell lung cancer: a multicenter, open-label, single-arm phase 1/2 trial” (Signal Transduction and Targeted Therapy, 2025)
